Reference: patent US20040009599A1, “Antisense modulation of cellular inhibitor of apoptosis-1 expression” (priority 1998, published 2004)
Strand notation (5' to 3'): a small letter for the sugar, then the base; units joined by * are phosphorothioate-linked, units joined directly phosphodiester-linked; [ ] holds rarer units or linkages, { } end groups; capitals alone tell only the bases. d = 2'-deoxy (DNA)

tested on: human Cellular Inhibitor of Apoptosis-1 RNA; assay: Inhibition of Cellular Inhibitor of Apoptosis-1 mRNA levels by quantitative real-time PCR after oligonucleotide treatment of cells; assay type: cell-based; details: phosphorothioate oligodeoxynucleotides; oligonucleotide at final concentration of 150 nM with LIPOFECTIN; real-time PCR; averages from three experiments
Description: Cells were harvested 16 hours after oligonucleotide treatment.
Poly(A)+ mRNA was isolated according to Miura et al., Clin. Chem., 1996, 42, 1758-1764. Other methods for poly(A)+ mRNA isolation are taught in, for example, Ausubel, F. M. et al., Current Protocols in Molecular Biology, Volume 1, pp. 4.5.1-4.5.3, John Wiley & Sons, Inc., 1993. […] 60 μL lysis buffer (10 mM Tris-HCl, pH 7.6, 1 mM EDTA, 0.5 M NaCl, 0.5% NP-40, 20 mM vanadyl-ribonucleoside complex) was added to each well, the plate was gently agitated and then incubated at room temperature for five minutes. 55 μL of lysate was transferred to Oligo d(T) coated 96-well plates (AGCT Inc., Irvine Calif.). Plates were incubated for 60 minutes at room temperature, washed 3 times with 200 μL of wash buffer (10 mM Tris-HCl pH 7.6, 1 mM EDTA, 0.3 M NaCl). After the final wash, the plate was blotted on paper towels to remove excess wash buffer and then air-dried for 5 minutes. 60 μL of elution buffer (5 mM Tris-HCl pH 7.6), preheated to 70° C. was added to each well, the plate was incubated on a 90° C. hot plate for 5 minutes, and the eluate was then transferred to a fresh 96-well plate.
Cellular Inhibitor of Apoptosis-1 probes and primers were designed to hybridize to the human Cellular Inhibitor of Apoptosis-1 sequence, using published sequence information (GenBank accession number U37547, incorporated herein as SEQ ID NO:1).
For Cellular Inhibitor of Apoptosis-1 the PCR primers were: […]
Target sites are indicated by nucleotide numbers, as given in the sequence source reference (Genbank accession no. U37547), to which the oligonucleotide binds. All compounds in Table 1 are oligodeoxynucleotides with phosphorothioate backbones (internucleoside linkages) throughout. […] Data are averages from three experiments. If present, “N.D.” indicates “no data”.

| Substance | % Inhibition of Cellular Inhibitor of Apoptosis-1 mRNA levels [%] |
| --- | --- |
| ISIS 23332: phosphorothioate oligodeoxynucleotide aaattacactccatagaa, 5′ UTR target site 4 (antisense dA*dA*dA*dT*dT*dA*dC*dA*dC*dT*dC*dC*dA*dT*dA*dG*dA*dA) | 0 |
| ISIS 23333: phosphorothioate oligodeoxynucleotide aatcaactctactagcct, 5′ UTR target site 68 (antisense dA*dA*dT*dC*dA*dA*dC*dT*dC*dT*dA*dC*dT*dA*dG*dC*dC*dT) | 47 |
| ISIS 23334: phosphorothioate oligodeoxynucleotide ctagtgttatcagaaacg, 5′ UTR target site 139 (antisense dC*dT*dA*dG*dT*dG*dT*dT*dA*dT*dC*dA*dG*dA*dA*dA*dC*dG) | 0 |
| ISIS 23335: phosphorothioate oligodeoxynucleotide ttaaggactattcagcta, 5′ UTR target site 216 (antisense dT*dT*dA*dA*dG*dG*dA*dC*dT*dA*dT*dT*dC*dA*dG*dC*dT*dA) | 0 |
| ISIS 23336: phosphorothioate oligodeoxynucleotide ttagttagccataaaatt, 5′ UTR target site 287 (antisense dT*dT*dA*dG*dT*dT*dA*dG*dC*dC*dA*dT*dA*dA*dA*dA*dT*dT) | 0 |
| ISIS 23337: phosphorothioate oligodeoxynucleotide actttcttcctaactttg, 5′ UTR target site 352 (antisense dA*dC*dT*dT*dT*dC*dT*dT*dC*dC*dT*dA*dA*dC*dT*dT*dT*dG) | 0 |
| ISIS 23338: phosphorothioate oligodeoxynucleotide ttggcttaaagttcaaaa, 5′ UTR target site 435 (antisense dT*dT*dG*dG*dC*dT*dT*dA*dA*dA*dG*dT*dT*dC*dA*dA*dA*dA) | 0 |
| ISIS 23339: phosphorothioate oligodeoxynucleotide aagtcaatacccacaagc, 5′ UTR target site 497 (antisense dA*dA*dG*dT*dC*dA*dA*dT*dA*dC*dC*dC*dA*dC*dA*dA*dG*dC) | 0 |
| ISIS 23340: phosphorothioate oligodeoxynucleotide aaaagctaagttcacaca, 5′ UTR target site 576 (antisense dA*dA*dA*dA*dG*dC*dT*dA*dA*dG*dT*dT*dC*dA*dC*dA*dC*dA) | 0 |
| ISIS 23341: phosphorothioate oligodeoxynucleotide aagcactttaacatgaca, 5′ UTR target site 661 (antisense dA*dA*dG*dC*dA*dC*dT*dT*dT*dA*dA*dC*dA*dT*dG*dA*dC*dA) | 15 |
| ISIS 23342: phosphorothioate oligodeoxynucleotide tatatgcaggcttctttc, 5′ UTR target site 684 (antisense dT*dA*dT*dA*dT*dG*dC*dA*dG*dG*dC*dT*dT*dC*dT*dT*dT*dC) | 23 |
| ISIS 23343: phosphorothioate oligodeoxynucleotide ataacagaccaattactg, 5′ UTR target site 724 (antisense dA*dT*dA*dA*dC*dA*dG*dA*dC*dC*dA*dA*dT*dT*dA*dC*dT*dG) | 0 |
| ISIS 23344: phosphorothioate oligodeoxynucleotide tgccttttatttatattt, 5′ UTR target site 764 (antisense dT*dG*dC*dC*dT*dT*dT*dT*dA*dT*dT*dT*dA*dT*dA*dT*dT*dT) | 0 |

same assay, conditions: summary of Table 1; real-time PCR of mRNA levels

| Substance | inhibition of Cellular Inhibitor of Apoptosis-1 expression |
| --- | --- |
| ISIS 23333: phosphorothioate oligodeoxynucleotide aatcaactctactagcct, 5′ UTR target site 68 (antisense dA*dA*dT*dC*dA*dA*dC*dT*dC*dT*dA*dC*dT*dA*dG*dC*dC*dT) | at least 20% |
| ISIS 23342: phosphorothioate oligodeoxynucleotide tatatgcaggcttctttc, 5′ UTR target site 684 (antisense dT*dA*dT*dA*dT*dG*dC*dA*dG*dG*dC*dT*dT*dC*dT*dT*dT*dC) | at least 20% |
